# Laboratory results published in patent publication US6169181A, “Compounds useful to treat retroviral infections” (Pharmacia & Upjohn Company, priority 1998, dated 2001).
# Several values for one entry are separate records, joined by “and”; a condition that tells them apart may be missing. Equal values may be shown once. Read-outs that look alike come from different tables or passages of the source.
# Experiments:
# HIV-1 protease [1] = target: T1, HIV-1 protease (Human immunodeficiency virus type 1 group M subtype B, UniProt P04585); experiment: biochemical; details: for inhibition at 0.123 µM / inhibition at 0.37 µM / inhibition at 1.1 µM / inhibition at 3.3 µM / inhibition at 10 µM / inhibition at 30 µM: read-out: Protease % Inhib; for PROTEASE % INHIB.: Table II, enzyme HIV-1
# Procedure, shortened: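 Percent inhibition came from fluorescence of FITC-tagged cleavage product, separated by filtration from uncleaved substrate captured on streptavidin-coated beads. The enzyme (10 μl of 0.1 μM) and compound acted on a biotin/FITC dual-labelled peptide for one hour at room temperature in the dark. The reaction ran in 0.1 M sodium acetate, pH 5.5, with 1.0 M NaCl and 0.05% NP-40.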
# HIV-1 protease [2] = target: T1, HIV-1 protease; experiment: biochemical
# Procedure, shortened: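 Biotinylated, FITC-labelled peptide substrate cleaved in 0.1 M sodium acetate pH 5.5, 1.0 M NaCl, 0.05% NP-40, room temperature. Filtered labelled product read by fluorescence; nonlinear least-squares fit.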
# [3] = Table I, read-out: HIV Protease FITC Assay Ki
# [4] = Table II, enzyme HIV-1, read-out: FITC KI
# [5] = read-out: HIV Protease FITC Assay Ki
SMILES,"inhibition at 0.123 µM (HIV-1 protease [1]; Table I, Dose 0.123 μM)","inhibition at 0.37 µM (HIV-1 protease [1]; Table I, Dose 0.370 μM)","inhibition at 1.1 µM (HIV-1 protease [1]; Table I, Dose 1.100 μM)","inhibition at 3.3 µM (HIV-1 protease [1]; Table I, Dose 3.300 μM)","inhibition at 10 µM (HIV-1 protease [1]; Table I, Dose 10.000 μM)","inhibition at 30 µM (HIV-1 protease [1]; Table I, Dose 30.000 μM)",Ki (HIV-1 protease [2]; [3]),other results
"CC[C@H](Cc1ccccc1)c1cc(O)c(C(c2cccc(NS(=O)(=O)c3ccc(C#N)cc3)c2)C2CC2)c(=O)o1 (single isomer, unassigned) [Example 148, N-(3-(R or S)-{Cyclopropyl-[6-(1-(R)-ethylphenethyl)-4-hydroxy-2-oxo-2H-pyran-3-yl]-methyl}-phenyl)-4-cyanobenzenesulfonamide]",81.3%,91.7%,95.6%,90%,99.2%,93.5%,4.77 nM and 18.1 nM,
"CCC[C@@]1(CCc2ccc(F)cc2)CC(O)=C([C@H](c2cccc(NS(=O)(=O)c3cn(C)cn3)c2)C(C)(C)C)C(=O)O1 (single isomer, unassigned) [Example 351, N-[3-{1(S or R)-(4-Hydroxy-5,6-dihydro-2-oxo-6(R or S)-(2-(4-fluorophenyl)ethyl)-6-propyl-2H-pyran-3-yl)-2,2-dimethyl-propyl}phenyl]-1-methyl-1H-imidazole-4-sulfonamide]",,,,,,,,PROTEASE % INHIB. (HIV-1 protease [1]; DOSE 0.123 (unit not given)): < 10%; PROTEASE % INHIB. (HIV-1 protease [1]; DOSE 0.370 (unit not given)): < 10%; PROTEASE % INHIB. (HIV-1 protease [1]; DOSE 1.100 (unit not given)): 25.4%; PROTEASE % INHIB. (HIV-1 protease [1]; DOSE 3.300 (unit not given)): 55.11%; PROTEASE % INHIB. (HIV-1 protease [1]; DOSE 10.000 (unit not given)): 78.53%; PROTEASE % INHIB. (HIV-1 protease [1]; DOSE 30.000 (unit not given)): 90.55%; Ki (HIV-1 protease [2]; [4]): 558 nM
"CCC[C@]1(CCc2ccc(F)cc2)CC(O)=C([C@H](c2cccc(NS(=O)(=O)c3cn(C)cn3)c2)C(C)(C)C)C(=O)O1 (single isomer, unassigned) [Example 352, N-[3-{1(S or R)-(4-Hydroxy-5,6-dihydro-2-oxo-6(S or R)-(2-(4-fluorophenyl)ethyl)-6-propyl-2H-pyran-3-yl)-2,2-dimethyl-propyl}phenyl]-1-methyl-1H-imidazole-4-sulfonamide]",,,,,,,,PROTEASE % INHIB. (HIV-1 protease [1]; DOSE 0.123 (unit not given)): < 10%; PROTEASE % INHIB. (HIV-1 protease [1]; DOSE 0.370 (unit not given)): 25.31%; PROTEASE % INHIB. (HIV-1 protease [1]; DOSE 1.100 (unit not given)): 47.78%; PROTEASE % INHIB. (HIV-1 protease [1]; DOSE 3.300 (unit not given)): 74.99%; PROTEASE % INHIB. (HIV-1 protease [1]; DOSE 10.000 (unit not given)): 85.86%; PROTEASE % INHIB. (HIV-1 protease [1]; DOSE 30.000 (unit not given)): 87.82%; Ki (HIV-1 protease [2]; [4]): 168 nM
"CC(C)(C)C(C1=C(O)CC(CCc2ccccc2)(CCc2ccccc2)OC1=O)c1cccc(NS(=O)(=O)c2ccc(N)cn2)c1 (single isomer, unassigned) [Example 355, N-[3-{1(R or S)-(4-Hydroxy-5,6-dihydro-2-oxo-6,6-bis(2-phenylethyl)-2H-pyran-3-yl)-2,2-dimethylpropyl}phenyl]-5-aminopyridine-2-sulfonamide]",,,,,,,,PROTEASE % INHIB. (HIV-1 protease [1]; DOSE 0.123 (unit not given)): < 10%; PROTEASE % INHIB. (HIV-1 protease [1]; DOSE 0.370 (unit not given)): < 10%; PROTEASE % INHIB. (HIV-1 protease [1]; DOSE 1.100 (unit not given)): < 10%; PROTEASE % INHIB. (HIV-1 protease [1]; DOSE 3.300 (unit not given)): 20.72%; PROTEASE % INHIB. (HIV-1 protease [1]; DOSE 10.000 (unit not given)): 46.66%; PROTEASE % INHIB. (HIV-1 protease [1]; DOSE 30.000 (unit not given)): 67.82%; Ki (HIV-1 protease [2]; [4]): 700 nM
"CCCC1CCCCCc2c1oc(=O)c(C(c1cccc(NS(=O)(=O)c3ccccc3)c1)C1CC1)c2O (stereo not shown) [Example 1, N-[3-[cyclopropyl(5,6,7,8,9,10-hexahydro-4-hydroxy-2-oxo-10-propyl-2H-cycloocta[b]pyran-3-yl)methyl]phenyl]benzenesulfonamide]",75.4%,87.3%,97.1%,96.8%,99.7%,97.4%,15 nM,
"O=c1oc2c(c(O)c1C(c1cccc(CS(=O)(=O)c3ccccc3)c1)C1CC1)CCCCCC2 (stereo not shown) [Example 10, 3-[Cyclopropyl[3-[(phenylsulfonyl)methyl]phenyl]methyl]-5,6,7,8,9,10-hexahydro-4-hydroxy-2H-Cycloocta[b]pyran-2-one]",,,,,,,,inhibition at 0.123 µM (HIV-1 protease [1]): 102%; inhibition at 0.37 µM (HIV-1 protease [1]): 112%; inhibition at 1.1 µM (HIV-1 protease [1]): 116%; inhibition at 3.3 µM (HIV-1 protease [1]): 119%; inhibition at 10 µM (HIV-1 protease [1]): 129%; inhibition at 30 µM (HIV-1 protease [1]): 130%; Ki (HIV-1 protease [2]; [5]): 5.71 nM
"N#Cc1ccc(S(=O)(=O)Cc2cccc(C(c3c(O)c4c(oc3=O)CCCCCC4)C3CC3)c2)cc1 (stereo not shown) [Example 11, 3-[cyclopropyl[3-[(4-cyanophenylsulfonyl)methyl]phenyl]methyl]-5,6,7,8,9,10-hexahydro-4-hydroxy-2H-cycloocta[b]pyran-2-one]",78.9%,95.3%,100%,95.1%,99.7%,104%,1.9 nM,
"O=c1oc2c(c(O)c1C(c1cccc(CS(=O)(=O)c3ccc(F)cc3)c1)C1CC1)CCCCCC2 (stereo not shown) [Example 12, 3-[cyclopropyl[3-[(4-fluorophenylsulfonyl)methyl]phenyl]methyl]-5,6,7,8,9,10-hexahydro-4-hydroxy-2H-cycloocta[b]pyran-2-one]",75.7%,87.2%,91.8%,91.1%,94.7%,95.7%,2.15 nM,
"Cc1ccc(S(=O)(=O)Cc2cccc(C(c3c(O)c4c(oc3=O)CCCCCC4)C3CC3)c2)cc1 (stereo not shown) [Example 13, 3-[cyclopropyl[3-[(4-methylphenylsulfonyl)methyl]phenyl]methyl]-5,6,7,8,9,10-hexahydro-4-hydroxy-2H-cycloocta[b]pyran-2-one]",68.9%,88.1%,94%,95.5%,98.6%,104%,4.15 nM,
"O=C(O)c1ccc(S(=O)(=O)Cc2cccc(C(c3c(O)c4c(oc3=O)CCCCCC4)C3CC3)c2)cc1 (stereo not shown) [Example 14, 3-[cyclopropyl[3-[(4-carboxyphenylsulfonyl)methyl]phenyl]methyl]-5,6,7,8,9,10-hexahydro-4-hydroxy-2H-cycloocta[b]pyran-2-one]",65.7%,88%,96.8%,96.6%,102%,106%,6.88 nM,
"Cn1ccnc1S(=O)(=O)Cc1cccc(C(c2c(O)c3c(oc2=O)CCCCCC3)C2CC2)c1 (stereo not shown) [Example 15, 3-[cyclopropyl[3-[(2-(1-methylimidazoyl)sulfonyl)methyl]phenyl]methyl]-5,6,7,8,9,10-hexahydro-4-hydroxy-2H-cycloocta[b]pyran-2-one]",77.6%,88.5%,92.4%,94%,95.8%,99.2%,2.8 nM,
"CCCC1(CCc2ccccc2)CC(O)=C(C(CC)c2cccc(NS(=O)(=O)c3ccc(C#N)cc3)c2)C(=O)O1 (stereo not shown) [Example 40, 4-Cyano-N-[3-[1-(4-hydroxy-2-oxo-6-phenethyl-6-propyl-5,6-dihydro-2H-pyran-3-yl)-propyl]-phenyl]-benzenesulfonamide]",59.6%,102%,98.7%,105%,88.7%,72.7%,10.8 nM,
"CCCC1(CCc2ccccc2)CC(O)=C(C(CC)c2cccc(NS(=O)(=O)c3cn(C)cn3)c2)C(=O)O1 (stereo not shown) [Example 41, N-[3-[1-(4-hydroxy-2-oxo-6-phenethyl-6-propyl-5,6-dihydro-2H-pyran-3-yl)-propyl]-phenyl]-1-methyl-1H-imidazole-4-sulfonamide]",,,,,,,,inhibition at 0.123 µM (HIV-1 protease [1]): 103%; inhibition at 0.37 µM (HIV-1 protease [1]): 102%; inhibition at 1.1 µM (HIV-1 protease [1]): 104%; inhibition at 3.3 µM (HIV-1 protease [1]): 101%; inhibition at 10 µM (HIV-1 protease [1]): 85.9%; inhibition at 30 µM (HIV-1 protease [1]): 72.8%; Ki (HIV-1 protease [2]; [5]): 3.17 nM
